These results are taken from patent US8575203B2, “Chemical compounds” (Boehringer Ingelheim International GmbH, priority 2010, dated 2013).

Recombinant human PDK1 enzyme (aa 52-556), sequence (O15530 52-556): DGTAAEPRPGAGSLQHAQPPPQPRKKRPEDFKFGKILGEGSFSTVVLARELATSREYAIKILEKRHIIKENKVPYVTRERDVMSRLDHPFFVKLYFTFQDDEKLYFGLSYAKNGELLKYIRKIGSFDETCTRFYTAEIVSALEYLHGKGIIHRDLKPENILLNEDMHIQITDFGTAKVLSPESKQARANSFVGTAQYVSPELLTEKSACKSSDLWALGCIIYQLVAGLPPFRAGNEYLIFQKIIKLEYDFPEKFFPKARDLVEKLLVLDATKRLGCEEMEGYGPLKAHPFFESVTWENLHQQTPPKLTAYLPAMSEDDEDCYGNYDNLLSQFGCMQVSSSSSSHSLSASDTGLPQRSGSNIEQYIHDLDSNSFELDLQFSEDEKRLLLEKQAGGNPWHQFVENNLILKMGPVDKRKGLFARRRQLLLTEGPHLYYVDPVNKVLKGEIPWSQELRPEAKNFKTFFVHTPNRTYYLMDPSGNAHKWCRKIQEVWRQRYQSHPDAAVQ

The test addresses Recombinant human PDK1 enzyme (aa 52-556) (Homo sapiens (Human), UniProt O15530). Description: PDK1 kinase assay. The test is classed as biochemical. The following applies: in vitro kinase assay, His6-PDK1 (aa 52-556), PDKtide, P33-ATP. An outline of the steps: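 Radiometric filter-binding read-out after H3PO4 stop. The reaction ran 90 min at RT, started with a 25 μM ATP/γ-33P-ATP solution, after 30 min RT preincubation of the compound series (10 μM top, 1:5 dilutions) with N-His6 PDK1 aa 52-556 (insect-cell expressed, 3.33 ng/well) and 25 μM final PDKtide.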
Turning to `O=C(NCC#Cc1ccc2nccc(OCC3CCOCC3)c2c1)c1cccn(C(CO)c2ccc(F)c(F)c2)c1=O` (stereo not shown) [I-125.16], the IC50 was found to be 11 nM. The same measure for `CNc1ncnc2cc(Cl)c(C#CCNC(=O)c3cncn(Cc4ccc(F)c(F)c4)c3=O)cc12` [I-5]: 229 nM; for `CC1(O)CCN(c2ncnc3ccc(C#CCNC(=O)c4cccn(Cc5ccc(F)c(F)c5)c4=O)cc23)CC1` [II-41]: 61 nM.

On to `CCN1CCC(Nc2cnc3ccc(C#CCNC(=O)c4cccn(Cc5ccc(F)c(F)c5)c4=O)cc3n2)CC1` [I-46], for which the IC50 amounted to 7 nM. Regarding `CN(C)CCCNc1ccnc2ccc(C#CCNC(=O)c3cncn(Cc4ccc(F)c(F)c4)c3=O)cc12` [I-119], the IC50 was found to be 554 nM. The same measure for `O=C(NCC#Cc1ccc2ncnc(N3CCCC3)c2c1)c1cccn(Cc2ccc(F)c(F)c2)c1=O` [II-27]: 52 nM. The figure for `COc1ccnc2ccc(C#CCNC(=O)c3cncn(Cc4ccc(F)c(F)c4)c3=O)cc12` [I-91] is 38 nM; for `CN1CCC(Nc2cnc3ccc(C#CCNC(=O)c4cccn([C@@H](CO)c5ccc(F)c(F)c5)c4=O)cc3n2)CC1` [I-41] it is 3 nM. As for `CN(C)[C@H]1CC[C@H](Nc2cnc3ccc(C#CCNC(=O)c4cncn(Cc5ccc(F)c(F)c5)c4=O)cc3n2)CC1` [I-43], the IC50 was 5 nM.

Consider `O=C(NCC#Cc1ccc2nccc(-c3cc[nH]c3)c2c1)c1cncn(Cc2ccc(F)c(F)c2)c1=O` [II-88], for which the concentration for half-maximal inhibition (IC50) worked out at 19 nM. The same measure for `COCCN1CCC(Nc2cnc3ccc(C#CCNC(=O)c4cccn(Cc5ccc(F)c(F)c5)c4=O)cc3n2)CC1` [I-49]: 9 nM. The same measure for `CC(c1cc(F)c(F)c(F)c1)n1cccc(C(=O)NCC#Cc2ccc3nccc(OC[C@H]4CCN(C)C4)c3c2)c1=O` (stereo partly shown) [I-125.11]: 4 nM; for `O=C(NCC#Cc1ccc2ncnc(NCCc3cccs3)c2c1)c1cncn(Cc2ccc(F)c(F)c2)c1=O` [II-12]: 161 nM; for `O=C(NCC#Cc1ccc2ncnc(NCCc3ccco3)c2c1)c1cncn(Cc2ccc(F)c(F)c2)c1=O` [II-6]: 98 nM.

On to `O=C(NCC#Cc1ccc2ncc(N[C@H]3CC[C@H](N4CCOCC4)CC3)nc2c1)c1cccn([C@H](CO)c2cccc(F)c2)c1=O` [I-64], for which the IC50 was determined as 5 nM. The same measure for `O=C(NCC#Cc1ccc2ncc(CC3CCNCC3)nc2c1)c1cncn(Cc2ccc(F)c(F)c2)c1=O` [I-66]: 654 nM; for `O=C(NCC#Cc1ccc2ncc(N[C@H]3CC[C@H](N4CCOCC4)CC3)nc2c1)c1ccnn(Cc2ccc(F)c(F)c2)c1=O` [I-60]: 7 nM; for `COc1ncnc2ccc(C#CCNC(=O)c3cncn(Cc4ccc(F)c(F)c4)c3=O)cc12` [I-2]: 37 nM. The same measure for `O=C(NCC#Cc1ccc2ncnc(NCCc3ccccn3)c2c1)c1cncn(Cc2ccc(F)c(F)c2)c1=O` [II-7]: 105 nM. As for `COC(=O)c1cnc2ccc(C#CCNC(=O)c3cncn(Cc4ccc(F)c(F)c4)c3=O)c(C)c2c1` [I-82], the half-inhibitory concentration (IC50) was determined as 119 nM. The same measure for `O=C(NCC#Cc1ccc2ncc(NC3CCNCC3)nc2c1)c1cncn(Cc2ccc(F)c(F)c2)c1=O` [I-27]: 3 nM; for `O=C(NCC#Cc1ccc2ncc(NC3CCN(C4COC4)CC3)nc2c1)c1ccnn(Cc2ccc(F)c(F)c2)c1=O` [I-54]: 8 nM.

With `CC(C)(CO)CNc1ncnc2ccc(C#CCNC(=O)c3cccn(Cc4ccc(F)c(F)c4)c3=O)cc12` [II-32], the 50% inhibitory concentration (IC50) is 124 nM. The same measure for `COCCN1CCC(Nc2cnc3ccc(C#CCNC(=O)c4cccn([C@@H](CO)c5ccc(F)c(F)c5)c4=O)cc3c2)CC1` [I-77]: 4 nM; for `COc1cccc(CN(C)c2ncnc3ccc(C#CCNC(=O)c4cccn(Cc5ccc(F)c(F)c5)c4=O)cc23)c1` [II-45]: 63 nM. The same measure for `O=C(NCC#Cc1ccc2ncc(O)cc2c1)c1cncn(Cc2ccc(F)c(F)c2)c1=O` [I-86]: 86 nM; for `CN(c1ccccc1)c1ncnc2ccc(C#CCNC(=O)c3cncn(Cc4ccc(F)c(F)c4)c3=O)cc12` [II-48]: 15 nM; for `CN1CCCC(COc2ccnc3ccc(C#CCNC(=O)c4cccn(Cc5ccc(F)c(F)c5)c4=O)cc23)C1` (stereo not shown) [I-101]: 5 nM. Regarding `CC(C)N1CCC[C@@H](COc2ccnc3ccc(C#CCNC(=O)c4cccn(Cc5ccc(F)c(F)c5)c4=O)cc23)C1` [I-125.22], the IC50 was determined as 3 nM. The same measure for `CC(c1ccc(F)c(F)c1)n1cccc(C(=O)NCC#Cc2ccc3nccc(OCCCN(C)C)c3c2)c1=O` (stereo not shown) [I-124]: 2 nM; for `COc1ccc(CCNc2ncnc3ccc(C#CCNC(=O)c4cncn(Cc5ccc(F)c(F)c5)c4=O)cc23)cc1` [II-18]: 41 nM; for `CCN1CC[C@@H](Nc2cnc3ccc(C#CCNC(=O)c4cncn(Cc5ccc(F)c(F)c5)c4=O)cc3n2)[C@@H](F)C1` [I-45]: 8 nM.

In the case of `CNc1cnc2ccc(C#CCNC(=O)c3cncn(Cc4ccc(F)c(F)c4)c3=O)cc2n1` [I-14], the IC50 came to 27 nM.

Consider `CN(C)c1cnc2ccc(C#CCNC(=O)c3cncn(Cc4ccc(F)c(F)c4)c3=O)cc2n1` [I-15], for which the half-inhibitory concentration (IC50) was determined as 68 nM. `CN1CCC(Nc2cnc3ccc(C#CCNC(=O)c4cccn([C@H](CO)c5ccccc5)c4=O)cc3n2)CC1` [I-32]: the IC50 came to 8 nM. Regarding `CNc1ncnc2ccc(C#CCNC(=O)c3cccn(Cc4ccc(F)c(F)c4)c3=O)c(C)c12` [I-3], the IC50 amounted to 8 nM. As to `COCCN1CCC(Nc2cnc3ccc(C#CCNC(=O)c4cncn(Cc5ccc(F)c(F)c5)c4=O)cc3c2)CC1` [I-73], the IC50 turned out to be 4 nM. The figure for `CN(C)c1c(C#N)cnc2ccc(C#CCNC(=O)c3cccn(Cc4ccc(F)c(F)c4)c3=O)cc12` [II-94] is 27 nM; for `CNc1c(C#N)cnc2ccc(C#CCNC(=O)c3cccn(Cc4ccc(F)c(F)c4)c3=O)cc12` [II-105] it is 46 nM; for `CN(CCc1ccccc1)c1ncnc2ccc(C#CCNC(=O)c3cncn(Cc4ccc(F)c(F)c4)c3=O)cc12` [II-3] it is 134 nM.

For the molecule `CC(c1cc(F)c(F)c(F)c1)n1cccc(C(=O)NCC#Cc2ccc3nccc(OC[C@@H]4CCN(C)C4)c3c2)c1=O` (stereo partly shown) [I-125.1], the half-inhibitory concentration (IC50) was found to be 3 nM. The figure for `COCCN1CCN(C(=O)c2cnc3ccc(C#CCNC(=O)c4cncn(Cc5ccc(F)c(F)c5)c4=O)cc3c2)CC1` [II-85] is 1000 nM. The same measure for `O=C(NCC#Cc1ccc2nccc(OCC3CCCO3)c2c1)c1cncn(Cc2ccc(F)c(F)c2)c1=O` (stereo not shown) [I-121]: 156 nM; for `CN(C)c1ccnc2ccc(C#CCNC(=O)c3cncn(Cc4ccc(F)c(F)c4)c3=O)cc12` [I-90]: 110 nM; for `CCNC(=O)c1cnc2ccc(C#CCNC(=O)c3cncn(Cc4ccc(F)c(F)c4)c3=O)cc2c1` [II-76]: 31 nM. The figure for `CN(C)CCNc1ccnc2ccc(C#CCNC(=O)c3cccn(Cc4ccc(F)c(F)c4)c3=O)cc12` [I-118] is 853 nM; for `CCN(CC)c1ncnc2ccc(C#CCNC(=O)c3c(C)n(CCO)n(Cc4ccc(F)c(F)c4)c3=O)cc12` [II-49] it is 50 nM. Consider `O=C(NCC#Cc1ccc2ncnc(-c3ccccc3)c2c1)c1cncn(Cc2ccc(F)c(F)c2)c1=O` [II-65], for which the IC50 is 58 nM. The same measure for `CN(C)CCNc1ccnc2ccc(C#CCNC(=O)c3cncn(Cc4ccc(F)c(F)c4)c3=O)cc12` [I-117]: 1000 nM; for `CN(C)C(=O)c1cnc2ccc(C#CCNC(=O)c3cncn(Cc4ccc(F)c(F)c4)c3=O)cc2c1` [II-86]: 355 nM; for `CN(C)CCSc1cnc2ccc(C#CCNC(=O)c3cncn(Cc4ccc(F)c(F)c4)c3=O)cc2n1` [I-18]: 17 nM. The figure for `CN(C)CCCNc1ccnc2ccc(C#CCNC(=O)c3cccn(Cc4ccc(F)c(F)c4)c3=O)cc12` [I-120] is 656 nM; for `C=C(C)c1cnc2ccc(C#CCNC(=O)c3cncn(Cc4ccc(F)c(F)c4)c3=O)cc2n1` [I-69] it is 64 nM; for `O=C(NCC#Cc1ccc2ncc(NC3CC(N4CCCC4)C3)nc2c1)c1cncn(Cc2ccc(F)c(F)c2)c1=O` (stereo not shown) [I-29] it is 41 nM.

In the case of `CN(C)c1ncnc2ccc(C#CCNC(=O)c3cncn(Cc4ccc(F)c(F)c4)c3=O)cc12` [II-4], the IC50 was found to be 26 nM. The figure for `O=C(NCC#Cc1ccc2nccc(OCC3CCCCO3)c2c1)c1cccn(Cc2ccc(F)c(F)c2)c1=O` (stereo not shown) [I-109] is 166 nM; for `CN1CCC(Oc2ccnc3ccc(C#CCNC(=O)c4cccn(Cc5ccc(F)c(F)c5)c4=O)cc23)C1` (stereo not shown) [I-107] it is 212 nM; for `C[C@@H](c1ccc(F)c(F)c1)n1cccc(C(=O)NCC#Cc2ccc3ncc(NC4CCN(C5COC5)CC4)nc3c2)c1=O` [I-58] it is 8 nM. The same measure for `O=C(NCC#Cc1ccc2ncnc(NCCCn3ccnc3)c2c1)c1cncn(Cc2ccc(F)c(F)c2)c1=O` [II-11]: 135 nM.

Consider `Cc1c(C#CCNC(=O)c2cncn(Cc3ccc(F)c(F)c3)c2=O)ccc2ncc(C(=O)O)cc12` [I-83], for which the IC50 worked out at 62 nM. The same measure for `CN(C)C(=O)CNc1ncnc2ccc(C#CCNC(=O)c3cccn(Cc4ccc(F)c(F)c4)c3=O)cc12` [II-50]: 182 nM; for `O=C(NCC#Cc1ccc2ncnc(NCC(O)CO)c2c1)c1cccn(Cc2ccc(F)c(F)c2)c1=O` (stereo not shown) [II-37]: 44 nM.

As to `CCOc1ccnc2ccc(C#CCNC(=O)c3cncn(Cc4ccc(F)c(F)c4)c3=O)cc12` [I-95], the half-maximal inhibitory concentration (IC50) is 33 nM. The figure for `O=C(CNc1ncnc2ccc(C#CCNC(=O)c3cncn(Cc4ccc(F)c(F)c4)c3=O)cc12)c1ccccc1` [II-16] is 218 nM; for `CN1CCC[C@@H](COc2ccnc3ccc(C#CCNC(=O)c4cccn(Cc5cc(F)c(F)c(F)c5)c4=O)cc23)C1` [I-125.17] it is 2 nM. The same measure for `CN1CCC(Nc2cnc3ccc(C#CCNC(=O)c4cncn(Cc5ccc(F)c(F)c5)c4=O)cc3n2)C1` (stereo not shown) [I-16]: 33 nM; for `CN1CCC(Oc2ccnc3ccc(C#CCNC(=O)c4cncn(Cc5ccc(F)c(F)c5)c4=O)cc23)C1` (stereo not shown) [I-106]: 119 nM.

Usually IC50 stands for the concentration needed to halve the response being measured.
